Experimental findings from patent US9670202B2, “Substituted triazolopyridines” (BAYER PHARMA AKTIENGESELLSCHAFT, priority 2013, dated 2017) are described below.

The assay concerns the target human kinase Mps-1 (Homo sapiens (Human), UniProt P33981). The assay can be described thus: Mps-1 kinase assay (TR-FRET, 10 μM ATP). It counts as biochemical. To be noted: N-terminally GST-tagged human full length recombinant Mps-1, read-out: Mps-1 Inhibition, IC50 (Assay with 10 μM ATP). The protocol: The human kinase Mps-1 phosphorylates a biotinylated substrate peptide. Detection of the phosphorylated product is achieved by time-resolved fluorescence resonance energy transfer (TR-FRET) from Europium-labelled anti-phospho-Serine/Threonine antibody as donor to streptavidin labelled with cross-linked allophycocyanin (SA-XLent) as acceptor. Compounds are tested for their inhibition of the kinase activity.
N-terminally GST-tagged human full length recombinant Mps-1 kinase (purchased from Invitrogen, Karslruhe, Germany, cat. no PV4071) was used. As substrate for the kinase reaction a biotinylated peptide of the amino-acid sequence […]
The concentration of Mps-1 in the assay was adjusted to the activity of the enzyme lot and was chosen appropriate to have the assay in the linear range, typical enzyme concentrations were in the range of about 1 nM (final conc. in the 5 μl assay volume).
The resulting mixture was incubated 1 h at 22° C. to allow the binding of the phosphorylated peptide to the anti-phospho(Ser/Thr)-Europium-antibody. Subsequently the amount of phosphorylated substrate was evaluated by measurement of the resonance energy transfer from the Europium-labelled anti-phospho(Ser/Thr) antibody to the Streptavidin-XLent. Therefore, the fluorescence emissions at 620 nm and 665 nm after excitation at 350 nm was measured in a Viewlux TR-FRET reader (PerkinElmer LAS, Rodgau-Jügesheinn, Germany). The “blank-corrected normalized ratio” (a Viewlux specific readout, similar to the traditional ratio of the emissions at 665 nm and at 622 nm, in which blank and Eu-donor crosstalk are subtracted from the 665 nm signal before the ratio is calculated) was taken as the measure for the amount of phosphorylated substrate.
For orientation: TR-FRET usually uses a lanthanide donor and a delayed reading to cut background.

As usually defined, the IC50 is the point on the concentration scale where inhibition reaches its midpoint.

Molecules are shown by their SMILES. Where a name gives a salt, the structure may show the parent alone.

Chain of human kinase Mps-1 (P33981 whole entry): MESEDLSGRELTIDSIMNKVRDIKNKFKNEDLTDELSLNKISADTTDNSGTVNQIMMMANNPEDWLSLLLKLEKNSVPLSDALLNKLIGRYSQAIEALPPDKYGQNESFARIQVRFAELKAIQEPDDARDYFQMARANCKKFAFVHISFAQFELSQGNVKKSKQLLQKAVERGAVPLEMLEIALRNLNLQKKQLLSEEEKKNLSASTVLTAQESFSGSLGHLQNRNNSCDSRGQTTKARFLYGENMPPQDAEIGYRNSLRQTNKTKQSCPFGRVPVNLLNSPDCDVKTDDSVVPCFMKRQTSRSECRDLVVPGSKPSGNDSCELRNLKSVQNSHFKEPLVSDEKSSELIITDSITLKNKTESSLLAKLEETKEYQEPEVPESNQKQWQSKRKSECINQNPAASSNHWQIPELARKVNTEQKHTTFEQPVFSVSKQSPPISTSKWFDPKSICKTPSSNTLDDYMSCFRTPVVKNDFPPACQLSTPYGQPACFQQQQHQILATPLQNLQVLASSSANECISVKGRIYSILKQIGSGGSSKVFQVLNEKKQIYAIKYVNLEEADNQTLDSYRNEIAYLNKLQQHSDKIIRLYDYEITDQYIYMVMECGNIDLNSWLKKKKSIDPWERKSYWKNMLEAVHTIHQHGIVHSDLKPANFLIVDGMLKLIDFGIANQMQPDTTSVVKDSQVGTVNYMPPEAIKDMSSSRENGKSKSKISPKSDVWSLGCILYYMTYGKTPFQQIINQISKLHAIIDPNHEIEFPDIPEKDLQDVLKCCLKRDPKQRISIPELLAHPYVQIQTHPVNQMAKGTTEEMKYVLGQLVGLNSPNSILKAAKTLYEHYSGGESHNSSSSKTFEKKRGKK

Take `COc1ncccc1Nc1nc2ccc(N3CCN(C(=O)NCc4ccc(F)cc4)CC3)cn2n1` [Example 01.12, N-(4-fluorobenzyl)-4-{2-[(2-methoxypyridin-3-yl)amino][1,2,4]triazolo[1,5-a]pyridin-6-yl}piperazine-1-carboxamide]: the IC50 worked out at 18.6 nM.

Regarding `COc1cc(N2CCN(C)CC2)ccc1Nc1nc2ccc(N3CCN(C(=O)NCc4ccc(F)cc4)CC3)cn2n1` [Example 01.10, N-(4-fluorobenzyl)-4-(2-{[2-methoxy-4-(4-methylpiperazin-1-yl)phenyl]-amino}[1,2,4]triazolo[1,5-a]pyridin-6-yl)piperazine-1-carboxamide], the concentration for half-maximal inhibition (IC50) was determined as 9.2 nM.

With `CCN(CC)C(=O)c1ccc(Nc2nc3ccc(N4CCN(C(=O)NCc5ccc(F)cc5)CC4)cn3n2)c(OC)c1` [Example 01.03, 4-(2-{[4-(diethylcarbamoyl)-2-methoxyphenyl]amino}[1,2,4]triazolo[1,5-a]pyridin-6-yl)-N-(4-fluorobenzyl)piperazine-1-carboxamide], the half-maximal inhibitory concentration (IC50) was determined as 7.9 nM.

Regarding `CCOc1cc(C(=O)N2CCOCC2)ccc1Nc1nc2ccc(N3CCC(C(=O)NCc4ccc(F)cc4)CC3)cn2n1` [Example 02.01, 1-(2-{[2-ethoxy-4-(morpholin-4-ylcarbonyl)phenyl]amino}[1,2,4]triazolo-[1,5-a]pyridin-6-yl)-N-(4-fluorobenzyl)piperidine-4-carboxamide], the IC50 turned out to be 32.2 nM.

As for `CCN(CC)C(=O)c1ccc(Nc2nc3ccc(N4CCN(C(=O)NCc5ccc(F)cc5)CC4)cn3n2)c(OCC(F)(F)F)c1` [Example 01.09, 4-(2-{[4-(diethylcarbamoyl)-2-(2,2,2-trifluoroethoxy)phenyl]amino}[1,2,4]-triazolo[1,5-a]pyridin-6-yl)-N-(4-fluorobenzyl)piperazine-1-carboxamide trifluoroacetate], the IC50 was 1.7 nM.

As for `CCOc1cc(C(=O)N2CCOCC2)ccc1Nc1nc2ccc(N3CCC(NC(=O)Cc4ccc(F)cc4)CC3)cn2n1` [Example 04.02, N-[1-(2-{[2-ethoxy-4-(morpholin-4-ylcarbonyl)phenyl]amino}[1,2,4]-triazolo[1,5-a]pyridin-6-yl)piperidin-4-yl]-2-(4-fluorophenyl)acetamide], the IC50 was 12.8 nM.

`CCOc1ncccc1Nc1nc2ccc(N3CCC(NC(=O)Cc4ccc(F)cc4)CC3)cn2n1` [Example 04.03, N-(1-{2-[(2-ethoxypyridin-3-yl)amino][1,2,4]triazolo[1,5-a]pyridin-6-yl}-piperidin-4-yl)-2-(4-fluorophenyl)acetamide]: the IC50 was 32.8 nM.

In the case of `CC(C)(C)NC(=O)c1ccc(Nc2nc3ccc(N4CCN(C(=O)NCc5ccc(F)cc5)CC4)cn3n2)c(OCC(F)(F)F)c1` [Example 01.02, 4-(2-{[4-(tert-butylcarbamoyl)-2-(2,2,2-trifluoroethoxy)phenyl]amino}-[1,2,4]triazolo[1,5-a]pyridin-6-yl)-N-(4-fluorobenzyl)piperazine-1-carboxamide], the half-maximal inhibitory concentration (IC50) amounted to 5.6 nM.

For `CCN(CC)C(=O)c1ccc(Nc2nc3ccc(N4CCN(C(=O)NCc5ccc(F)cc5)CC4)cn3n2)c(OCC(C)C)c1` [Example 01.06, 4-(2-{[4-(diethylcarbamoyl)-2-(2-methylpropoxy)phenyl]amino}[1,2,4]-triazolo[1,5-a]pyridin-6-yl)-N-(4-fluorobenzyl)piperazine-1-carboxamide trifluoroacetate], the IC50 was determined as 28.5 nM.

Consider `N#Cc1ccccc1Nc1nc2ccc(N3CCN(C(=O)NCc4ccc(F)cc4)CC3)cn2n1` [Example 01.14, 4-{2-[(2-cyanophenyl)amino][1,2,4]triazolo[1,5-a]pyridin-6-yl}-N-(4-fluoro-benzyl)piperazine-1-carboxamide], for which the half-maximal inhibitory concentration (IC50) amounted to 8 nM.

For `CCNC(=O)c1ccc(Nc2nc3ccc(N4CCN(C(=O)NCc5ccc(F)cc5)CC4)cn3n2)c(OCC)c1` [Example 01.01, 4-(2-{[2-ethoxy-4-(ethylcarbamoyl)phenyl]amino}[1,2,4]triazolo[1,5-a]-pyridin-6-yl)-N-(4-fluorobenzyl)piperazine-1-carboxamide], the IC50 amounted to 3.1 nM.

For the compound `CCNC(=O)c1ccc(Nc2nc3ccc(N4CCC(C(=O)NCC5CC5)CC4)cn3n2)c(OCC)c1` [Example 03.01, N-(cyclopropylmethyl)-1-(2-{[2-ethoxy-4-(ethylcarbamoyl)phenyl]amino}-[1,2,4]triazolo[1,5-a]pyridin-6-yl)piperidine-4-carboxamide], the concentration for half-maximal inhibition (IC50) was found to be 68.8 nM.

Take `COc1cc(Nc2nc3ccc(N4CCN(C(=O)NCc5ccc(F)cc5)CC4)cn3n2)ccc1C(=O)N1CCOCC1` [Example 01.11, N-(4-fluorobenzyl)-4-(2-{[3-methoxy-4-(morpholin-4-ylcarbonyl)phenyl]-amino}[1,2,4]triazolo[1,5-a]pyridin-6-yl)piperazine-1-carboxamide]: the half-inhibitory concentration (IC50) turned out to be 45.6 nM.

For `CCNC(=O)c1ccc(Nc2nc3ccc(N4CCC(NC(=O)Cc5ccc(F)cc5)CC4)cn3n2)c(OCC)c1` [Example 04.01, 3-ethoxy-N-ethyl-4-{[6-(4-{[(4-fluorophenyl)acetyl]amino}piperidin-1-yl)-[1,2,4]triazolo[1,5-a]pyridin-2-yl]amino}benzamide], the concentration for half-maximal inhibition (IC50) amounted to 7.1 nM.

As to `CCOc1cc(C(=O)N2CCOCC2)ccc1Nc1nc2ccc(N3CCN(C(=O)NCc4ccc(F)cc4)CC3)cn2n1` [Example 01.04, 4-(2-{[2-ethoxy-4-(morpholin-4-ylcarbonyl)phenyl]amino}[1,2,4]triazolo-[1,5-a]pyridin-6-yl)-N-(4-fluorobenzyl)piperazine-1-carboxamide], the IC50 was found to be 2.6 nM.

With `CCN(CC)C(=O)c1ccc(Nc2nc3ccc(N4CCN(C(=O)NCc5ccc(F)cc5)CC4)cn3n2)c(OCC2CC2)c1` [Example 01.07, 4-(2-{[2-(cyclopropylmethoxy)-4-(diethylcarbamoyl)phenyl]amino}[1,2,4]-triazolo[1,5-a]pyridin-6-yl)-N-(4-fluorobenzyl)piperazine-1-carboxamide], the IC50 is 20.6 nM.

On to `CCOc1ncccc1Nc1nc2ccc(N3CCN(C(=O)NCc4ccc(F)cc4)CC3)cn2n1` [Example 01.13, 4-{2-[(2-ethoxypyridin-3-yl)amino][1,2,4]triazolo[1,5-a]pyridin-6-yl}-N-(4-fluorobenzyl)piperazine-1-carboxamide], for which the IC50 is 8.9 nM.

For `CCN(CC)C(=O)c1ccc(Nc2nc3ccc(N4CCN(C(=O)NCc5ccc(F)cc5)CC4)cn3n2)c(OCCOC)c1` [Example 01.08, 4-(2-{[4-(diethylcarbamoyl)-2-(2-methoxyethoxy)phenyl]amino}[1,2,4]-triazolo[1,5-a]pyridin-6-yl)-N-(4-fluorobenzyl)piperazine-1-carboxamide], the 50% inhibitory concentration (IC50) came to 57 nM.

As for `CCCOc1cc(C(=O)N(CC)CC)ccc1Nc1nc2ccc(N3CCN(C(=O)NCc4ccc(F)cc4)CC3)cn2n1` [Example 01.05, 4-(2-{[4-(diethylcarbamoyl)-2-propoxyphenyl]amino}[1,2,4]triazolo[1,5-a]pyridin-6-yl)-N-(4-fluorobenzyl)piperazine-1-carboxamide], the half-maximal inhibitory concentration (IC50) turned out to be 9.7 nM.

As to `O=C(NCc1ccc(F)cc1)NC1CCN(c2ccc3nc(Nc4ccc(C(=O)N5CCOCC5)cc4OCC(F)(F)F)nn3c2)C1` (stereo not drawn) [Example 05.01, 1-(4-fluorobenzyl)-3-[1-(2-{[4-(morpholin-4-ylcarbonyl)-2-(2,2,2-trifluoroethoxy)phenyl]amino}[1,2,4]triazolo[1,5-a]pyridin-6-yl)pyrrolidin-3-yl]urea], the IC50 turned out to be 46.9 nM.

Take `CCOc1cc(C(=O)N2CCOCC2)ccc1Nc1nc2ccc(N3CCC(C(=O)NCC4CC4)CC3)cn2n1` [Example 03.02, N-(cyclopropylmethyl)-1-(2-{[2-ethoxy-4-(morpholin-4-ylcarbonyl)phenyl]-amino}[1,2,4]triazolo[1,5-a]pyridin-6-yl)piperidine-4-carboxamide]: the IC50 was 67.8 nM.
